In patent US11926627B1 (priority 2023, dated 2024) one finds MIC data, which are given here for four compounds.

Converted amounts (≈) assume the structure as drawn.

This assay deals with multidrug-resistant (MDR) strains of Mycobacterium tuberculosis. The assay can be described thus: microbe, parasite or virus in culture. The note with it: 192 h, read-out: Antitubercular activity against Mycobacterium tuberculosis MDR (MIC). The format is cell-based.
With `COC(=O)c1c(C(=O)OC)c2ccc3cc(C)ccc3n2c1C(=O)c1ccc(Cl)cc1` [7-METHYL-QUIN4, Dimethyl 1-(4-chlorobenzoyl)-7-methylpyrrolo[1,2-α]quinoline-2,3-dicarboxylate], the MIC stood at 4 mg/L (≈ 9.18 µM).
On to `COC(=O)c1c(C(=O)OC)c2ccc3cc(C)ccc3n2c1C(=O)c1ccc(Br)cc1` [7-METHYL-QUIN2, Dimethyl 1-(4-bromobenzoyl)-7-methylpyrrolo[1,2-α]quinoline-2,3-dicarboxylate], for which the MIC is 16 mg/L (≈ 33.3 µM).
Consider `COC(=O)c1c(C(=O)OC)c2ccc3cc(C)ccc3n2c1C(=O)c1ccc(F)cc1` [7-METHYL-QUIN1, Dimethyl 1-(4-fluorobenzoyl)-7-methylpyrrolo[1,2-α]quinoline-2,3-dicarboxylate], for which the MIC amounted to 8 mg/L (≈ 19.1 µM).
With `CCOC(=O)c1cc(C(=O)c2ccc(Cl)cc2)n2c1ccc1cc(C)ccc12` [7-METHYL-QUIN3, Ethyl 1-(4-chlorobenzoyl)-7-methylpyrrolo[1,2-α]quinoline-3-carboxylate] the figure was 4 mg/L (≈ 10.2 µM).
